Entries after “also recorded” stand apart in the source; their conditions may differ. Read-outs that look alike come from different tables or passages of the source.
Legend:
[1] = target: T1, equilibrative nucleoside transporter 1 (ENT1) (Cavia porcellus, UniProt H0V4R7); test: Radioligand binding assay for adenosine transporters (3H-NBTI, cerebral cortex membranes); design: species or system guinea pig; details: for Binding with / activity against ENT1, result in words: radioligand binding; for Ki: guinea pig equilibrium transporter 1, cerebral cortex membranes, 3H-NBTI 0.5 nM
T1 construct: Membrane fractions collected from the cerebral cortex of Duncan Hartley derived guinea pigs; tissue MDS Pharma Services Taiwan (assay provider); host or cells: guinea pig cerebral cortex membranes
T1 sequence (H0V4R7 1-461): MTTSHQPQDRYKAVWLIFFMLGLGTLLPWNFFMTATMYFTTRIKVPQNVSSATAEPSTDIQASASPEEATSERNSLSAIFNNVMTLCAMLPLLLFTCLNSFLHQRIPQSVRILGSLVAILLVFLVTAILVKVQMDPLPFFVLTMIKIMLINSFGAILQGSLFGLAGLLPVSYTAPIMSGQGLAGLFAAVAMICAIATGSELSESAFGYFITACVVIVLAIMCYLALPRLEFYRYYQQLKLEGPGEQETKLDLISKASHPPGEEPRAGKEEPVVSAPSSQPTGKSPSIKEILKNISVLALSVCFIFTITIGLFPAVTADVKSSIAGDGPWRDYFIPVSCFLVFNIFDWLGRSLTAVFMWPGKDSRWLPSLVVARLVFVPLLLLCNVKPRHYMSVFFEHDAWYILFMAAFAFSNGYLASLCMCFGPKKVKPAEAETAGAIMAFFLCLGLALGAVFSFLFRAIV
Description: The pharmacological properties of the prepared adenosine analogues were characterized by MDS Pharma Services using radioligand binding assays. […] Except for 11 and 15, the adenosine derivatives having modification at the C-5′ position appeared to deteriorate their binding with A2AR, though they still maintained high affinity with ENT1.

[2] = tested on: PC12 cells; details: compound isolated from Gastrodia elata, earlier report; cited from earlier work
[3] = tested on: PC12 cells; test: MTT metabolism assay, rescue of serum-deprived PC12 cells from apoptosis; type: cell-based; details: 0.01 μM, 24 h
Description: Cell viability was monitored by the MTT assay, and is expressed as a percentage of the MTT activity measured in the serum-containing group. […] Collectively, the dual function of these compounds in activation of adenosine receptor and in inhibition of adenosine transporter might synergistically increase the effective concentration of adenosine, especially when these two proteins are in proximity.
PC12 cells purchased from ATCC (Manassas, Va., USA) were maintained in Dulbecco's modified Eagle's medium (DMEM) supplemented with 10% horse serum and 5% fetal bovine serum and incubated in a CO2 incubator (5%) at 37° C. Survival was assessed by the 3-(4,5-dimethylthiazol-2-yl)-2,5-diphenyltetrazolium bromide (MTT) metabolism assay as described elsewhere.^49,50 In brief, cells grown on 150-mm plates were washed three times with PBS and resuspended in DMEM. Suspended cells (1×10^4 cells) were plated on 96-well plates and treated with or without the indicated reagent. After incubation for 24 h, MTT (0.5 mg/mL) was added to the medium and incubated for 3 h. After discarding the medium, DMSO (100 μL) was then applied to the well to dissolve the formazan crystals derived from the mitochondrial cleavage of the tetrazolium ring by live cells. The absorbance at 570/630 nm in each well was measured on a micro-enzyme-linked immunosorbent assay (ELISA) reader.

[4] = target: human A2A receptor (Homo sapiens, UniProt P29274); test: Radioligand binding assay of the A2A receptor (3H-CGS21680, MDS Pharma Services); details: for Binding with A2AR, result in words: radioligand binding
Sequence of human A2A receptor (P29274 whole entry): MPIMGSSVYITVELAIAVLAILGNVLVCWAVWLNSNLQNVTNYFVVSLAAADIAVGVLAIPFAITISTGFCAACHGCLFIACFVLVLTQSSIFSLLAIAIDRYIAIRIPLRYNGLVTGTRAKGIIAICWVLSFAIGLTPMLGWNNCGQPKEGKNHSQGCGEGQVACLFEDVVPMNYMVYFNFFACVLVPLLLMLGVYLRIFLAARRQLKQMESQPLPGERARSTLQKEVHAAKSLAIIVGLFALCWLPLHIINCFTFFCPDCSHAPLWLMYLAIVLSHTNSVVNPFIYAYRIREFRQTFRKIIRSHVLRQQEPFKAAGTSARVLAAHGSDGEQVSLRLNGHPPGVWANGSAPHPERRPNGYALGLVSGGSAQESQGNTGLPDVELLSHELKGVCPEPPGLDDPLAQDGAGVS
Description: Radioligand binding assays were performed by MDS Pharma Services Taiwan (Taipei, Taiwan) using standard binding protocols. For the binding assay of the A2A receptor,^46 membrane proteins collected from HEK293 cells overexpressing the human A2A receptor were incubated in reaction buffer [50 mM Tris-HCl (pH 7.4), 10 mM MgCl2, 1 mM EDTA, and 2 U/mL adenosine deaminase] containing ^3H-CGS21680 (50 nM) for 90 min at 25° C. Nonspecific binding was assessed in the presence of 50 μM adenosine-5′-N-ethylcarboxamide (NECA).

SMILES: CCNC(=O)C1OC(n2cnc3c(N)nc(NCCc4ccc(CCC(=O)O)cc4)nc32)C(O)C1O (centres unmarked) [CGS, 6-amino-9-(5-ethylcarbamoyl-3,4-dihydroxy-oxolan-2-yl)-2-{2-[4-(2-carboxyethyl)phenyl]ethylamino}purine, reference compound]
- Binding with / activity against ENT1, result in words [1]: lack the activity against ENT1; also recorded: no inhibitory activity toward hENT1

SMILES: OC[C@H]1O[C@@H](n2cnc3c(NCc4ccc(O)cc4)ncnc32)[C@H](O)[C@@H]1O [Compound 1, N^6-(4-Hydroxybenzyl)adenosine]
- Prevention of apoptosis of serum-deprived PC12 cells (previously reported) [2]: prevented apoptosis of serum-deprived PC12 cells
- Rescue of PC12 cells from apoptosis evoked by serum withdrawal (cell viability, MTT) [3]: rescued PC12 cells from the apoptosis evoked by serum withdrawal
- Binding with A2AR, result in words [4]: low micromolar
- Ki ([4]; read-out: Ki A2A-R, human adenosine A2A receptor, HEK293 membranes, 3H-CGS21680 50 nM): 2.62 µM
- Ki [1]: 0.538 µM
- Binding with / activity against ENT1, result in words [1]: sub-micromolar range

SMILES: CC1(C)O[C@@H]2[C@H](O1)[C@@H](CO)O[C@H]2n1cnc2c(NCc3ccc(O)cc3)ncnc21 [Compound 1-acetonide, 1-acetonide]
- Ki [4]: > 100 µM
- Ki [1]: > 100 µM

SMILES: COc1ccc(CNc2ncnc3c2ncn3[C@@H]2O[C@H](CO)[C@@H](O)[C@H]2O)cc1 [Compound 3, N^6-(4-methoxybenzyl)adenosine]
- Ki [4]: 30.1 µM
- Ki [1]: 0.318 µM

SMILES: OC[C@H]1O[C@@H](n2cnc3c(NCCc4c[nH]c5ccccc45)ncnc32)[C@H](O)[C@@H]1O [Compound 6, N^6-(3-Indolylethyl)adenosine]
- Rescue of PC12 cells from apoptosis evoked by serum withdrawal (cell viability, MTT) [3]: rescued PC12 cells from the apoptosis evoked by serum withdrawal equally as well as 1
- Binding with A2AR, result in words [4]: low micromolar
- Binding affinity to A2AR of compound 6 relative to compound 11 ([4]; ratio of Ki values): 10 fold
- Binding with / activity against ENT1, result in words [1]: sub-micromolar range

SMILES: COc1ccc(CNc2ncnc3c2ncn3[C@@H]2O[C@H](CCl)[C@@H](O)[C@H]2O)cc1 [Compound 7]
- Ki [4]: > 100 µM
- Ki [1]: 2.98 µM

SMILES: COc1ccc(CNc2ncnc3c2ncn3[C@@H]2O[C@H](CN=[N+]=[N-])[C@H](O)C2O)cc1 (some centres unmarked) [Compound 8]
- Ki [1]: 0.581 µM

SMILES: COc1ccc(CNc2ncnc3c2ncn3[C@@H]2O[C@H](CNC(C)=O)[C@@H](O)[C@H]2O)cc1 [Compound 9, 5′-Acetamido-5′-deoxy-N^6-(4-methoxybenzyl)adenosine]
- melting point: 121.1 to 121.6 °C
- Ki [4]: > 100 µM
- Ki [1]: 1.43 µM

SMILES: COc1ccc(CNc2ncnc3c2ncn3[C@@H]2O[C@H](CNS(=O)(=O)c3ccc(C)cc3)[C@@H](O)[C@H]2O)cc1 [Compound 10]
- Ki [4]: > 100 µM
- Ki [1]: 0.2 µM

SMILES: COc1ccc(CNc2ncnc3c2ncn3[C@@H]2O[C@H](Cn3cc(C)nn3)[C@@H](O)[C@H]2O)cc1 [Compound 11, 5′-Deoxy-5′-(4-methyl-1,2,3-triazol-1-yl)-N^6-(4-methoxybenzyl)adenosine]
- melting point: 183 to 183.2 °C
- Ki [4]: 41.8 µM
- Ki [1]: 0.96 µM

SMILES: CCCCc1cn(C[C@H]2O[C@@H](n3cnc4c(NCc5ccc(OC)cc5)ncnc43)[C@H](O)[C@@H]2O)nn1 [Compound 12]
- Ki [4]: > 100 µM
- Ki [1]: 0.511 µM

SMILES: CCCCCCc1cn(C[C@H]2O[C@@H](n3cnc4c(NCc5ccc(OC)cc5)ncnc43)[C@H](O)[C@@H]2O)nn1 [Compound 13]
- Ki [4]: > 100 µM
- Ki [1]: 0.052 µM

SMILES: COc1ccc(CNc2ncnc3c2ncn3[C@@H]2O[C@H](Cn3cc(Cc4ccccc4)nn3)[C@@H](O)[C@H]2O)cc1 [Compound 14]
- Ki [4]: > 100 µM
- Ki [1]: 0.116 µM

SMILES: CCNC(=O)C1OC(n2cnc3c(NCc4ccc(O)cc4)ncnc32)C(O)C1O (centres unmarked) [Compound 15, 3,4-Dihydroxy-5-[6-(4-hydroxybenzylamino)-purin-9-yl]-tetrahydrofuran-2-carboxylic Acid Ethylamide]
- melting point: 179.7 to 180.5 °C
- Ki [4]: 20.3 µM
- Ki [1]: > 10 µM

SMILES: COc1ccc(CNc2ncnc3c2ncn3C2OC(c3nnn[nH]3)C(O)C2O)cc1 (centres unmarked) [Compound 16, 2-[6-(4-Methoxybenzylamino)-purin-9-yl]-5-(1H-tetrazol-5-yl)-tetrahydrofuran-3,4-diol]
- melting point: 210 to 210.6 °C
- Ki [4]: > 100 µM
- Ki [1]: 1.17 µM

SMILES: O=[N+]([O-])c1ccc(CSc2ncnc3c2ncn3[C@@H]2O[C@H](CO)[C@@H](O)[C@H]2O)cc1 [NBTI, S-(4-nitrobenzyl)-6-thioinosine, reference compound]
- Ki [4]: > 10 µM
- Binding with A2AR, result in words [4]: no binding ability with A2AR
- Ki [1]: 0.00029 µM

— patent US10342818B2, “Dual-action compounds targeting adenosine A2A receptor and adenosine transporter for prevention and treatment of neurodegenerative diseases” (Academia Sinica, priority 2009, dated 2019)
